# From patent US20250034170A1, “SMALL MOLECULE MODULATORS OF GLUCOCEREBROSIDASE ACTIVITY AND USES THEREOF” (Vanqua Bio, Inc., priority 2021, published 2025)
# Target: T1, GCase (Homo sapiens, UniProt P04062)
# T1 construct: endogenous in cells; host or cells: HeLa cells
# T1 sequence (P04062 40-536): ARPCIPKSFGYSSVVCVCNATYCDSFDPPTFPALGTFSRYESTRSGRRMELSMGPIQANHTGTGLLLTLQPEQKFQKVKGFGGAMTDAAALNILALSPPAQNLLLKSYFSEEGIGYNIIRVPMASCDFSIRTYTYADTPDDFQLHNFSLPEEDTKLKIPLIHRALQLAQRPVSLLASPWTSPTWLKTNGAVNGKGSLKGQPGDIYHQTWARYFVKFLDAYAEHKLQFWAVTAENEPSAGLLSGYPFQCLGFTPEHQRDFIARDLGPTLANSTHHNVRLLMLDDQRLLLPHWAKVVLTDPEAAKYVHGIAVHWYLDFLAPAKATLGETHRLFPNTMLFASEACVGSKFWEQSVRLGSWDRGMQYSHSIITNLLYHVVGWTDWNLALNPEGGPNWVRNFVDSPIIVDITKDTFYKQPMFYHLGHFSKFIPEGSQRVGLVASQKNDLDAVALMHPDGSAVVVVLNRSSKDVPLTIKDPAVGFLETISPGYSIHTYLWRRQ
# Assay: activation of GCase in a live cell PFB assay in HELA cells
# Type: cell-based
# Details: EC50 given as range classes
# Description: Exemplary compounds were evaluated for activation of GCase in a live cell PFB assay in HELA cells (essentially as described in Ysselstein et al., “LRRK2 kinase activity regulates lysosomal glucocerebrosidase in neurons derived from Parkinson's disease patients” Nature Communications (2019) 10:5570). […] EC50 ranges: A: <10 μM; B: >10-50 μM; C: >50-100 μM; D: >100 μM.
row,Compound,EC50 [µM]
1,Cc1nc(N2CCC3(C2)CN(c2cnc4c(C)nn(CC(F)F)c4n2)C3)cc(C(F)(F)F)n1 [Cmpd 578],10 to 50
2,Cc1nc(N2CCC3(CC2)CCN(c2cnc4cnn(CC(F)F)c4n2)C3)cc(C(F)(F)F)n1 [Cmpd 579],10 to 50
3,Cc1nc(N2CCC3(CC2)CCN(c2cnc4cnn(CC(F)(F)F)c4n2)C3)cc(C(F)(F)F)n1 [Cmpd 580],10 to 50
4,Cc1nc(N2CCC3(CC2)CCN(c2ncc4cnn(CC(F)F)c4n2)C3)cc(C(F)(F)F)n1 [Cmpd 581],10 to 50
5,Cc1nc(N2CCC3(CC2)CCN(c2cnc4c(C)nn(CC(F)F)c4n2)C3)cc(C(F)(F)F)n1 [Cmpd 582],10 to 50
6,Cc1nc(N2CCC3(CC2)CCN(c2cnc4cnn(C5COC5)c4n2)C3)cc(C(F)(F)F)n1 [Cmpd 583],> 100
7,Cc1nc(N2CCC3(CC2)CN(c2cnc4cnn(C5COC5)c4n2)C3)cc(C(F)(F)F)n1 [Cmpd 584],10 to 50
8,Cc1nc(N2CCC3(CC2)CN(c2cnc4c(C)nn(CC(F)F)c4n2)C3)cc(C(F)(F)F)n1 [Cmpd 585],< 10
9,Cc1nc(N2CCC3(CC2)CN(c2ncc4cnn(CC(F)F)c4n2)C3)cc(C(F)(F)F)n1 [Cmpd 586],10 to 50
10,Cc1nc(N2CCC3(CC2)CN(c2cnc4cnn(CC(F)(F)F)c4n2)C3)cc(C(F)(F)F)n1 [Cmpd 587],10 to 50
11,Cc1nc(N2CCC3(CC2)CN(c2cnc4cnn(CC(F)F)c4n2)C3)cc(C(F)(F)F)n1 [Cmpd 588],< 10
12,Cc1nc(N2CC3(CCN(c4ncc5cnn(C6COC6)c5n4)C3)C2)cc(C(F)(F)F)n1 [Cmpd 589],10 to 50
13,Cc1cc(N2CC3(CCN(c4ncc5cnn(C6COC6)c5n4)C3)C2)nc(C(F)(F)F)n1 [Cmpd 590],10 to 50
14,Cc1ncc(N2CC3(CCN(c4ncc5c(C)nn(CC(F)F)c5n4)C3)C2)c(C(F)(F)F)n1 [Cmpd 591],< 10
15,Cc1ncc(N2CC3(CCN(c4cnc5cnn(CC(F)F)c5n4)C3)C2)c(C(F)(F)F)n1 [Cmpd 592],> 100
16,Cc1ncc(N2CC3(CCN(c4cnc5c(C)nn(CC(F)F)c5n4)C3)C2)c(C(F)(F)F)n1 [Cmpd 593],> 100
17,Cc1ncc(N2CC3(CCN(c4cnc5cnn(CC(F)(F)F)c5n4)C3)C2)c(C(F)(F)F)n1 [Cmpd 594],> 100
18,Cc1ncc(N2CC3(CCN(c4ncc5cnn(CC(F)F)c5n4)C3)C2)c(C(F)(F)F)n1 [Cmpd 595],< 10
19,Cc1ncc(N2CC3(CCN(c4ncc5cnn(CC(F)(F)F)c5n4)C3)C2)c(C(F)(F)F)n1 [Cmpd 596],< 10

row,Compound,EC50 [µM]
1,Cc1ncc(N2CC3(CCN(c4cnc5cnn(C6COC6)c5n4)C3)C2)c(C(F)(F)F)n1 [Cmpd 597],> 100
2,Cc1ncc(N2CC3(CCN(c4ncc5cnn(C6COC6)c5n4)C3)C2)c(C(F)(F)F)n1 [Cmpd 598],10 to 50
3,Cc1ncc(N2CC3(CCN(c4cnc5c(C)nn(C6COC6)c5n4)C3)C2)c(C(F)(F)F)n1 [Cmpd 599],10 to 50
4,Cc1ncc(N2CC3(CCN(c4ncc5c(C)nn(C6COC6)c5n4)C3)C2)c(C(F)(F)F)n1 [Cmpd 600],50 to 100
5,Cc1ncc(N2CCC3(CCN(c4cnc5cnn(CC(F)F)c5n4)CC3)C2)c(C(F)(F)F)n1 [Cmpd 601],< 10
6,Cc1ncc(N2CCC3(CCN(c4cnc5c(C)nn(CC(F)F)c5n4)CC3)C2)c(C(F)(F)F)n1 [Cmpd 602],10 to 50
7,Cc1nn(CC(F)(F)F)c2nc(N3CCC4(CCN(c5cnc(C(F)(F)F)nc5)C4)C3)cnc12 (centres unmarked) [Cmpd 603],10 to 50
8,Cc1nc(N2CCC3(CCN(c4cnc5c(C)nn(CC(F)(F)F)c5n4)C3)C2)cc(C(F)(F)F)n1 (centres unmarked) [Cmpd 604],> 100
9,Cc1nn(CC(F)(F)F)c2nc(N3CCC4(CN(c5cnc(C(F)(F)F)nc5)C4)C3)cnc12 [Cmpd 605],> 100
10,Cc1ncc(N2CC3(CCN(c4cnc5c(C)nn(CC(F)(F)F)c5n4)C3)C2)c(C(F)(F)F)n1 [Cmpd 606],50 to 100
11,Cc1cc(N2CC3(CCN(c4cnc5c(C)nn(CC(F)(F)F)c5n4)C3)C2)nc(C(F)(F)F)n1 [Cmpd 607],10 to 50
12,Cc1nc(N2CC3(CCN(c4cnc5c(C)nn(CC(F)(F)F)c5n4)C3)C2)cc(C(F)(F)F)n1 [Cmpd 608],50 to 100
13,Cc1nc(N2CCC3(C2)CN(c2cnc4c(C)nn(CC(F)(F)F)c4n2)C3)cc(C(F)(F)F)n1 [Cmpd 609],10 to 50
14,Cc1nc(N2CC3(CCN(c4cnc5c(C)nn(CC(F)(F)F)c5n4)CC3)C2)cc(C(F)(F)F)n1 [Cmpd 610],< 10
15,Cc1nc(N2CCC3(CCN(c4cnc5c(C)nn(CC(F)(F)F)c5n4)CC3)C2)cc(C(F)(F)F)n1 [Cmpd 611],> 100
16,Cc1nc(N2CC3(CCN(c4cc5c(cn4)c(C)nn5CC(F)F)C3)C2)cc(C(F)(F)F)n1 [Cmpd 612],50 to 100
17,Cc1nc(N2CC3(CCN(c4cc5c(cn4)c(C)nn5CC(F)F)CC3)C2)cc(C(F)(F)F)n1 [Cmpd 613],< 10
18,Cc1nc(N2CC3(CCN(c4cc5c(cn4)c(C)nn5CC(F)F)CC3)CC2=O)cc(C(F)(F)F)n1 [Cmpd 614],10 to 50
19,Cc1nn(CC(F)(F)F)c2nc(N3CCC4(CCN(c5cnc(C(F)(F)F)nc5)C4)C3)ncc12 (centres unmarked) [Cmpd 615],10 to 50

row,Compound,EC50 [µM]
1,Cc1nc(N2CCC3(CCN(c4ncc5c(C)nn(CC(F)(F)F)c5n4)C3)C2)cc(C(F)(F)F)n1 (centres unmarked) [Cmpd 616],10 to 50
2,Cc1nc(N2CCC3(C2)CN(c2ncc4c(C)nn(CC(F)(F)F)c4n2)C3)cc(C(F)(F)F)n1 [Cmpd 617],10 to 50
3,Cc1nc(N2CC3(CCN(c4ncc5c(C)nn(CC(F)(F)F)c5n4)CC3)C2)cc(C(F)(F)F)n1 [Cmpd 618],10 to 50
4,Cc1nc(N2CCC3(CCN(c4ncc5c(C)nn(CC(F)(F)F)c5n4)CC3)C2)cc(C(F)(F)F)n1 [Cmpd 619],10 to 50
5,Cc1ncc(N2CC3(CCN(c4ncc5c(C)nn(CC(F)(F)F)c5n4)C3)C2)c(C(F)(F)F)n1 [Cmpd 620],10 to 50
6,Cc1nc(N2CC3(CCN(c4ccc5cnn(CC(F)F)c5n4)C3)C2)cc(C(F)(F)F)n1 [Cmpd 621],10 to 50
7,Cc1nc(N2CC3(CCN(c4ccc5c(C)nn(CC(F)F)c5n4)C3)C2)cc(C(F)(F)F)n1 [Cmpd 622],10 to 50
8,Cc1nc(N2CC3(CCN(c4ccc5cnn(CC(F)F)c5n4)CC3)C2)cc(C(F)(F)F)n1 [Cmpd 623],< 10
9,Cc1nc(N2CC3(CCN(c4ccc5c(C)nn(CC(F)F)c5n4)CC3)C2)cc(C(F)(F)F)n1 [Cmpd 624],< 10
10,Cc1nc(N2CCC3(CCN(c4ccc5cnn(CC(F)F)c5n4)CC3)C2)cc(C(F)(F)F)n1 [Cmpd 625],< 10
11,Cc1nc(N2CCC3(CCN(c4ccc5c(C)nn(CC(F)F)c5n4)CC3)C2)cc(C(F)(F)F)n1 [Cmpd 626],< 10
12,Cc1nc(N2CC3(CCN(c4ccc5cnn(CC(F)F)c5n4)CC3)CC2=O)cc(C(F)(F)F)n1 [Cmpd 627],< 10
13,Cc1nc(N2CC3(CCN(c4ccc5c(C)nn(CC(F)F)c5n4)CC3)CC2=O)cc(C(F)(F)F)n1 [Cmpd 628],< 10
14,Cc1nc(N2CC3(CCN(c4ncc5cnn(C(C)(C)C)c5n4)C3)C2)cc(C(F)(F)F)n1 [Cmpd 629],10 to 50
15,Cc1nc(N2CCC3(CCN(c4cc5c(cn4)c(C)nn5CC(F)F)CC3)C2)cc(C(F)(F)F)n1 [Cmpd 630],10 to 50
16,Cc1nc(N2CC3(CCN(c4cc5c(cn4)cnn5CC(F)F)C3)C2)cc(C(F)(F)F)n1 [Cmpd 631],10 to 50
17,Cc1nc(N2CC3(CCN(c4cc5c(cn4)cnn5CC(F)F)CC3)C2)cc(C(F)(F)F)n1 [Cmpd 632],< 10
18,Cc1nc(N2CCC3(CCN(c4cc5c(cn4)cnn5CC(F)F)CC3)C2)cc(C(F)(F)F)n1 [Cmpd 633],< 10

# Same assay, conditions: activation of GCase, EC50 ranges
row,Compound,EC50 [µM]
1,Cc1nc(N2CC3(CCN(c4cnc5cnn(CC(F)(F)F)c5n4)CC3)C2)cc(C(F)(F)F)n1 [Cmpd 567],< 10
2,Cc1nc(N2CC3(CCN(c4cnc5c(C)nn(CC(F)F)c5n4)CC3)C2)cc(C(F)(F)F)n1 [Cmpd 568],< 10
3,Cc1nc(N2CC3(CCN(c4ncc5c(C)nn(CC(F)F)c5n4)CC3)C2)cc(C(F)(F)F)n1 [Cmpd 569],10 to 50
4,Cc1nc(N2CC3(CCN(c4ncc5c(C)nn(C6COC6)c5n4)CC3)C2)cc(C(F)(F)F)n1 [Cmpd 570],10 to 50
5,Cc1nc(N2CCC3(CCN(c4cnc5cnn(CC(F)(F)F)c5n4)CC3)C2)cc(C(F)(F)F)n1 [Cmpd 571],10 to 50
6,Cc1nc(N2CCC3(CCN(c4ncc5cnn(CC(F)(F)F)c5n4)CC3)C2)cc(C(F)(F)F)n1 [Cmpd 572],< 10
7,Cc1nc(N2CCC3(CCN(c4ncc5cnn(C6COC6)c5n4)CC3)C2)cc(C(F)(F)F)n1 [Cmpd 573],> 100
8,Cc1nc(N2CCC3(CCN(c4cnc5cnn(C6COC6)c5n4)CC3)C2)cc(C(F)(F)F)n1 [Cmpd 574],10 to 50
9,Cc1nc(N2CCC3(CCN(c4cnc5c(C)nn(CC(F)F)c5n4)CC3)C2)cc(C(F)(F)F)n1 [Cmpd 575],> 100
10,Cc1nc(N2CCC3(CCN(c4ncc5c(C)nn(CC(F)F)c5n4)CC3)C2)cc(C(F)(F)F)n1 [Cmpd 576],10 to 50
11,Cc1nc(N2CCC3(C2)CN(c2ncc4c(C)nn(CC(F)F)c4n2)C3)cc(C(F)(F)F)n1 [Cmpd 577],10 to 50
12,Cc1nc(N2CC3(CCN(c4cc5c(cn4)cnn5CC(F)F)CC3)CC2=O)cc(C(F)(F)F)n1 [Cmpd 634],< 10
